From patent US10118911B2, “P-toluenesulfonate for MEK kinase inhibitor, and crystal form thereof and preparation method therefor” (Jiangsu Hengrui Medicine Co., Ltd., priority 2015, dated 2018)

Key:
[1] = Special stability study of crystal form I (grinding, heating, pressing); format: physicochemical
From the text: Crystal form I of the compound of formula (I) prepared according to the method of Example 2 was ground, heated and pressed.

[2] = Stability of crystal form I spread flat in the air under lighting, heating and high humidity, purity detected by HPLC; format: physicochemical; details: for stability (in words): lighting, high temperature, high humidity, p-toluenesulfonate
Method: The product sample of crystal form I prepared in Example 2 was spread flat in the air, to test its stability under conditions of lighting, heating (40° C., 60° C.), and high humidity (RH 75%, RH 90%). Samplings were carried out on Day 5 and Day 10.

[3] = system: MEK kinase; details: from PCT/CN2014/085976 of the applicant; cited from earlier work
[4] = Bioavailability compared to the free base; format: in vivo
[5] = Solubility compared to the free base; format: physicochemical
[6] = after grinding treatment for 10 min in a mortar under nitrogen atmosphere
[7] = after heating treatment for 3 h at 80° C.
[8] = after pressing treatment (pressed to a slice)

Question: For Cc1ccc(Oc2cc(=O)n(C)c(Nc3ccc(I)cc3F)c2C(N)=O)cn1.Cc1ccc(S(=O)(=O)O)cc1 [2-((2-fluoro-4-iodophenyl)amino)-1-methyl-4-((6-methylpyridin-3-yl)oxy)-6-oxo-1,6-di hydropyridine-3-carboxamide p-toluenesulfonate], which Crystal form [1, 6] is on record?
Answer: Its Crystal form is “form I”.

Question: What about the DSC peak [1, 6] of the same molecule?
Answer: Its DSC peak is 237.66 °C.

Question: And the Crystal form [1, 7]?
Answer: Its Crystal form is “form I”.

Question: And the DSC peak [1, 7]?
Answer: Its DSC peak is 237.45 °C.

Question: And the Crystal form [1, 8]?
Answer: Its Crystal form is “form I”.

Question: What about the DSC peak [1, 8] of the same molecule?
Answer: Its DSC peak is 237.75 °C.

Question: What about the “stability of the crystal form (in words)” value ([1]; grinding, pressure and heating) of the same molecule?
Answer: Its value is “stable”.

Question: What about the “purity detected by HPLC” value ([2]; 40° C., day 0) of the same molecule?
Answer: Its value is 98.86%.

Question: And the “purity detected by HPLC” value ([2]; 40° C., day 5)?
Answer: The value was 98.85%.

Question: What about the “purity detected by HPLC” value ([2]; 40° C., day 10) of the same molecule?
Answer: Its value is 98.88%.

Question: And the “purity detected by HPLC” value ([2]; 60° C., day 0)?
Answer: Its value is 98.86%.

Question: What about the “purity detected by HPLC” value ([2]; 60° C., day 5) of the same molecule?
Answer: Its value is 98.89%.

Question: And the “purity detected by HPLC” value ([2]; 60° C., day 10)?
Answer: Its value is 98.88%.

Question: And the “purity detected by HPLC” value ([2]; 4500 Lux, day 0)?
Answer: The value was 98.86%.

Question: And the “purity detected by HPLC” value ([2]; 4500 Lux, day 5)?
Answer: Its value is 99.08%.

Question: And the “purity detected by HPLC” value ([2]; 4500 Lux, day 10)?
Answer: The value was 99.17%.

Question: And the “purity detected by HPLC” value ([2]; RH75%, day 0)?
Answer: The value was 98.86%.

Question: And the “purity detected by HPLC” value ([2]; RH75%, day 5)?
Answer: The value was 98.88%.

Question: What about the “purity detected by HPLC” value ([2]; RH75%, day 10) of the same molecule?
Answer: Its value is 98.88%.

Question: What about the “purity detected by HPLC” value ([2]; RH90%, day 0) of the same molecule?
Answer: Its value is 98.86%.

Question: And the “purity detected by HPLC” value ([2]; RH90%, day 5)?
Answer: The value was 98.86%.

Question: And the “purity detected by HPLC” value ([2]; RH90%, day 10)?
Answer: Its value is 98.88%.

Question: What about the “stability (in words)” value ([2]; listed as crystal form I) of the same molecule?
Answer: The value was “good stability”.

Question: What about the “stability (in words)” value [2] of the same molecule?
Answer: The value was “stable”.

Question: With Cc1ccc(Oc2cc(=O)n(C)c(Nc3ccc(I)cc3F)c2C(N)=O)cn1 [Example 1, 2-((2-fluoro-4-iodophenyl)amino)-1-methyl-4-((6-methylpyridin-3-yl)oxy)-6-oxo-1,6-dihydropyridine-3-carboxamide] as the molecule, how does the “inhibitory activity against MEK kinase” value [3] read?
Answer: The value was “strong inhibitory activity”.

Question: Which bioavailability [4] does the source give for Cc1ccc(Oc2cc(=O)n(C)c(Nc3ccc(I)cc3F)c2C(N)=O)cn1.Cc1ccc(S(=O)(=O)O)cc1 [compound of formula (I), 2-((2-fluoro-4-iodophenyl)amino)-1-methyl-4-((6-methylpyridin-3-yl)oxy)-6-oxo-1,6-di hydropyridine-3-carboxamide p-toluenesulfonate] here?
Answer: The bioavailability was “greatly improved”.

Question: And the solubility [5]?
Answer: Its solubility is “greatly improved”.
